We go through 1 compound from patent US6682892B2, “Method for treating herpes viruses” (priority 2000, dated 2004).

Holding throughout (format): cell-based
For experiment [1], the system named is HCMV AD169-M1 (V823A, V824L). Description: Plaque reduction assay, 4-oxo-DHQ resistant HCMV AD169-M1. Particulars: Table 4, plaque reduction, resistant mutant; read-out: HCMV AD169 - M1 IC50. The procedure: (§1) Antiviral activity of compounds against herpesviruses such as HSV-1, HSV-2, or HCMV can be measured using plaque reduction assays. 0.1 ml of media containing approximately 50 PFU of virus is added to each well of a 24-well cell culture dish containing a confluent monolayer of cells (Vero cells for HSV-1 and HSV-2, HFF cells for HCMV). Compounds are dissolved in 100% DMSO and diluted in 100% DMSO as 200× stocks of the desired final drug concentration. Typically 5-6 two-fold dilutions are prepared for each compound. Dilutions of compounds are then added to media containing 0.8% CMC resulting in a final 1× drug concentration. After the virus-infected cells have incubated for 1 h at 37° C., the virus innoculum is removed and 1 ml of media containing 0.8% CMC and the various concentrations of compound is added to each well of the dish. The dish is incubated at 37° C. for approximately 2-3 days (HSV-1 and HSV-2) or 6-9 days (HCMV) to allow sufficient growth of virus to form plaques in the cell monolayer. Plaques can be observed and counted microscopically or by staining the cells with 0.1% crystal violet in 20% ethanol. […] Antiviral activity of a compound is expressed as the concentration of compound predicted to reduce the number of plaques in a well by 50% (IC50). The IC50 values are calculated by plotting the per cent inhibition vs. concentration of compound using EXCEL software for linear regression.
A plasmid containing the wild-type HCMV polymerase gene is modified to contain the V823A or V823A and V824L mutations using a site-directed mutagenesis Kit (Stratagene Corp.) and following the manufactures's protocol. HFF cells are plated into T25 tissue culture flasks to achieve 80% confluency at the time of the transfection. Wild type HCMV AD 169 DNA and plasmid DNA containing the mutant HCMV polymerase gene are mixed at a ratio of 1:2 (2 ug of viral DNA to 4 ug of plasmid DNA). DNA's are transfected using superfect transfection reagent according to methods recommended by the manufacturer (Quiagen Inc.). Cells are harvested five days posttransfection, freeze-thawed to release virus and half of the sample is used to infect HFF cell monolayers. Cells are overlayed with media containing 20 uM 4-oxo-DHQ compound 2 (see FIG. 1). Serial passage is repeated seven times in the presence of 20 uM compound 2 and virus isolates are then plaque purified three times prior to preparation of viral stock.
In order to isolate an HCMV resistant mutant marker rescue experiments are done. Plasmids containing the mutant polymerase genes are transfected into HFF cells along with wild type HCMV AD169 DNA. The resulting virus is then serially passaged in the presence of 20 uM compound 1 (see FIG. 1). A 4-oxo-DHQ resistant virus is isolated from marker rescue studies done with the HCMV polymerase gene containing mutations that result in the V823A, V824L amino acid changes, but not with the gene containing V823A change alone.

Experiment [2] concerns HSV-1 DJL-M1 (V823A). Description: Plaque reduction assay, 4-oxo-DHQ resistant HSV-1 DJL-M1. The conditions noted are these: Table 2, mutant V823A. The procedure:
(§2) Antiviral activity of compounds against herpesviruses such as HSV-1, HSV-2, or HCMV can be measured using plaque reduction assays. 0.1 ml of media containing approximately 50 PFU of virus is added to each well of a 24-well cell culture dish containing a confluent monolayer of cells (Vero cells for HSV-1 and HSV-2, HFF cells for HCMV). Compounds are dissolved in 100% DMSO and diluted in 100% DMSO as 200× stocks of the desired final drug concentration. Typically 5-6 two-fold dilutions are prepared for each compound. Dilutions of compounds are then added to media containing 0.8% CMC resulting in a final 1× drug concentration. After the virus-infected cells have incubated for 1 h at 37° C., the virus innoculum is removed and 1 ml of media containing 0.8% CMC and the various concentrations of compound is added to each well of the dish. The dish is incubated at 37° C. for approximately 2-3 days (HSV-1 and HSV-2) or 6-9 days (HCMV) to allow sufficient growth of virus to form plaques in the cell monolayer. Plaques can be observed and counted microscopically or by staining the cells with 0.1% crystal violet in 20% ethanol. […] The IC50 values are calculated by plotting the per cent inhibition vs. concentration of compound using EXCEL software for linear regression. […]
On the technique in general: Plaque reduction counts the foci of infection that form in a cell layer.

The test system of experiment [3] is HSV-1 F-M1 (V823A). Description: Plaque reduction assay, 4-oxo-DHQ resistant HSV-1 F-M1. Particulars: Table 2, mutant V823A. As for the experimental part: as §2
Experiment [4] concerns HSV-1 DJL. The experiment in a line: Plaque reduction assay, HSV-1 DJL. The conditions noted are these: Table 1, plaque reduction, Vero cells. As for the experimental part:
as §1
A panel of viruses consisting of four strains of HSV-1 (KOS, F, DJL, Patton) and three strains of HSV-2 (MS, 35D, 186) are tested in a plaque reduction assay against four different 4-oxo-DHQ compounds (#1, 2, 4, 5 as shown in FIG. 1), and one 4-oxo-DHTP compound (#3 as shown in FIG. 1) and against Acyclovir. The six drugs inhibited replication of the seven virus strains with IC50 values ranging from 2-10 μM (Table 1). In order to select for 4-oxo-DHQ resistant mutants, HSV-1 strains KOS, F, and DJL along with HSV-2 strains 186 and MS are serially passaged in the presence of 20 uM compound 1. Following the seventh passage, 4-oxo-DHQ resistant virus from each strain are plaque purified three times and high-titer stocks are made.

pIC50: −log10 of the molar value.

A word on the pIC50: it is the IC50 on a negative log10 scale, so that one unit is a factor of ten. As usually defined, the IC50 is the concentration that inhibits the measured activity by half. A high value points to lower potency. On to `Cn1cc(C(=O)NCc2ccc(Cl)cc2)c(=O)c2cc(/C=C\CO)cc(F)c21` [Compound 1], for which the pIC50 in experiment [1] is 5.33. For the same compound, the IC50 is > 20 µM in experiment [2], > 20 µM in experiment [3] and 2.5 µM in experiment [4].
